In patent US20250368627A1, “PYRAZOLESULFONAMIDES AS ANTITUMOR AGENTS” (Peloton Therapeutics, Inc., a fully owned subsidiary of …, priority 2019, published 2025):

How the values were obtained:
[1] = target: T1, DDB1DB/DCAF15 and RBM39 R1R2 complex (Homo sapiens, UniProt Q14498+Q66K64); test: DCAF15 RBM39 Complex Formation Assay (FRET); type: binding; details: FRET ratio Em 665/Em 615, incubated overnight at 4° C.
T1 construct: Amino acids 150 to 331 of RBM39 were cloned into pGEX4T3; GST (from vector pGEX4T3); TEV cleavage site (N); made in house; host or cells: DDB1DB/His-DCAF15: baculovirus/Sf9 co-expression; RBM39 R1R2: E. coli (pGEX4T3)
T1 sequence (Q66K64 whole entry, the tested form may be a part): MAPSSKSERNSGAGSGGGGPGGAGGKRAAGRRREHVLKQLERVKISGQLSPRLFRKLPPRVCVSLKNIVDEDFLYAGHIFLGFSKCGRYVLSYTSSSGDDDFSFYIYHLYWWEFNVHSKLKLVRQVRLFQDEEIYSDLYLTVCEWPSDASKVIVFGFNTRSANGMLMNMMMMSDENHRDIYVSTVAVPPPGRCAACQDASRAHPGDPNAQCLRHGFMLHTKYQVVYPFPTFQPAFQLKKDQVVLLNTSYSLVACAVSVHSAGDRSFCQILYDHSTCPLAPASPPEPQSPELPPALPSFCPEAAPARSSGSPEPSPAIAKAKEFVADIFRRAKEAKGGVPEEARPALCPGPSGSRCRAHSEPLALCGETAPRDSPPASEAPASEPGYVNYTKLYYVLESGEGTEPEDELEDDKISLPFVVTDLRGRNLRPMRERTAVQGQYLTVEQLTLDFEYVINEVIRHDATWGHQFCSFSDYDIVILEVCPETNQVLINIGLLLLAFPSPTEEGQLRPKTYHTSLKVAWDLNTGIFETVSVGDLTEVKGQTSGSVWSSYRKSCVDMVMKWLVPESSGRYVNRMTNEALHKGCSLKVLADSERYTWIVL
T1 sequence (Q14498 150-331): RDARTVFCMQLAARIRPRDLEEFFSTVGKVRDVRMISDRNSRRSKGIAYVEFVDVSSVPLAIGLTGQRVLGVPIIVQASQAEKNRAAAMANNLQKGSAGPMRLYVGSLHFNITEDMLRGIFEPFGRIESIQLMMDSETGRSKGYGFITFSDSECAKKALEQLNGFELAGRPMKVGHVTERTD
T1 sequence (Q16531 with tags, fused parts or gaps DEL396-708 partner): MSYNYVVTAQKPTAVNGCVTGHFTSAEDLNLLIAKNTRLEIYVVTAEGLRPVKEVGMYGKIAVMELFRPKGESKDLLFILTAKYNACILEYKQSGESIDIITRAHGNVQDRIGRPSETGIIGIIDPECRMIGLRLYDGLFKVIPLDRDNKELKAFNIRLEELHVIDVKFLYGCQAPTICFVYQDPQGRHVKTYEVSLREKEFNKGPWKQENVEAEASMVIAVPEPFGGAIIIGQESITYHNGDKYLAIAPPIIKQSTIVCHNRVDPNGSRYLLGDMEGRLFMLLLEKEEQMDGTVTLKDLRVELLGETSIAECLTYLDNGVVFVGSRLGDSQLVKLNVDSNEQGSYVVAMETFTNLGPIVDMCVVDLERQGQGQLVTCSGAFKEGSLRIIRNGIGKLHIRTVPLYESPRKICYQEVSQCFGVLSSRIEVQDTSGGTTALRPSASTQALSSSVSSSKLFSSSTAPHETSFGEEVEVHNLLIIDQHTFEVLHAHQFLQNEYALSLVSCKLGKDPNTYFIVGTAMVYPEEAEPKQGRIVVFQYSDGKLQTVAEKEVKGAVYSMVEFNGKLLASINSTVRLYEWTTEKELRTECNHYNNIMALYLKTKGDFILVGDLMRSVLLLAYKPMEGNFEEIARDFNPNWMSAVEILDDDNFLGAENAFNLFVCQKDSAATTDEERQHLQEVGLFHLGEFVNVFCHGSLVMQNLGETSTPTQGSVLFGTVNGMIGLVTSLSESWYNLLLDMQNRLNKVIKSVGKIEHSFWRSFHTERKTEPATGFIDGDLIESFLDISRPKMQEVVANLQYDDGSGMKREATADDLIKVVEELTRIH
Excerpt: LANCE Eu-W1024 Anti-6×His and SureLight Allophycocyanin-anti-FLAG antibodies were purchased from Perkin Elmer. Human DDB1DB and His-tagged DCAF15 were co-expressed in baculovirus/sf9 system. While full length DDB1 contains three 7-bladed propellers termed A, B, and C, DDB1DB has only propeller A (amino acids 1 to 395) and C (amino acids 709-1140). The His-tagged DCAF15 contains six histidine residues directly preceding the DCAF15 sequence without any linker. An RBM39 fragment containing RRM1 and RRM2 was expressed in E. coli. Amino acids 150 to 331 of RBM39 were cloned into pGEX4T3 with an N-terminal TEV cleavage site and a C-terminal FLAG tag.
A compound of the present disclosure in DMSO (2 μL) was transferred to a 384-well assay plate. Compound was added in 14 points, 3-fold serial dilution (1 μM to 0.6 pico molar) in DMSO. […] FRET assay buffer (25 mM HEPES, pH 7.5, 100 mM NaCl, […], 0.5 mM TCEP, 0.005% Tween-20, 0.2 nM Eu—W1024 Anti-6×His, 50 nM SureLight Allophycocyanin-anti-FLAG, 20 nM DDB1DB/DCAF15, 50 nM RBM39 R1R2) was added and the resulting solution was incubated overnight at 4° C. The plate was placed in a plate reader (Spark 10) with excitation at 1=340 nm and emissions monitored at 1=665 nm and 1=615 nm, and the FRET ratio (Em 665/Em 615) was determined. Low signal controls containing no compound and high signal controls containing 10 mM indisulam were measured for each plate.
EC50 values were calculated using Dotmatics template equation for 4-parameter fit. Results are expressed as % formation using the following equation: […]

[2] = system: HCT116 human colorectal carcinoma cells; test: CellTiter-Glo Luminescent Cell Viability Assay; type: cell-based; details: HCT-116, 72 h, 3 days
Method: HCT116 human colorectal carcinoma cells were used in these experiments. HCT116 cells were obtained from ATCC. CellTiter-Glo® Luminescent Cell Viability Assay Reagent was obtained from Promega.
About 3,000 cells were seeded into 96-well plate with […] of media (DMEM supplemented with 10% FBS, 100 units penicillin, and […] streptomycin per mL) the day before the experiment. For compound treatment, the master plate was prepared as follows: 100× compound stocks were prepared in a 96-well plate by 1 to 3 serial dilutions of 0.5 mM DMSO stocks. Each master plate contained serial dilution of 8 compounds, including the control compound E7820. […] of 100× compound stock was added to each well of the assay plate to give final concentrations of […]. Each concentration was tested in triplicate. After 3 days, cell viability was determined using CellTiter-Glo Luminescent Cell Viability Assay Reagent following the manufacturer's recommended protocol. Briefly, […] of CellTiter-Glo reagent was added to each well of the assay plate and the contents were mixed for 3 minutes at 600 rpm on a shaker (Thermomixer R). The plate was immediately placed in a plate reader (Synergy 2) and the luminescence signal (0.5 second per well integration time) was determined. IC50 values were calculated using Dotmatics software.

SMILES | IC50 [1] [nM] | EC50 [2] [nM]
Cc1ccc(NS(=O)(=O)c2cnn(C3(CO)COC3)c2)c2[nH]cc(C#N)c12 [Compound 116, N-(3-cyano-4-methyl-1H-indol-7-yl)-1-[3-(hydroxymethyl)oxetan-3-yl]pyrazole-4-sulfonamide] | < 250 | 250 to 1000
O=S(=O)(Nc1cccc2c(Cl)c[nH]c12)c1cnn([C@H]2C[C@@H](O)C2)c1 [Compound 194, N-(3-chloro-1H-indol-7-yl)-1-(3-hydroxycyclobutyl)pyrazole-4-sulfonamide] | < 250 | > 1000
Cc1ccc(NS(=O)(=O)c2c[nH]nc2N)c2[nH]cc(C#N)c12 [Compound 295, 3-amino-N-(3-cyano-4-methyl-1H-indol-7-yl)-1H-pyrazole-4-sulfonamide] | < 250 | 250 to 1000
O=S(=O)(Nc1cccc2c(Cl)c[nH]c12)c1cnn(C(F)F)c1 [Compound 6, N-(3-chloro-1H-indol-7-yl)-1-(difluoromethyl)pyrazole-4-sulfonamide] | < 250 | 250 to 1000
N#Cc1c[nH]c2c(NS(=O)(=O)c3cnn(CCCO)c3)ccc(F)c12 [Compound 211, N-(3-cyano-4-fluoro-1H-indol-7-yl)-1-(3-hydroxypropyl)pyrazole-4-sulfonamide] | < 250 | 250 to 1000
Cc1ccc(NS(=O)(=O)c2cnn([C@H](C)[C@@H](C)O)c2)c2[nH]cc(C#N)c12 [Compound 287, N-(3-cyano-4-methyl-1H-indol-7-yl)-1-[(1R,2R)-2-hydroxy-1-methyl-propyl]pyrazole-4-sulfonamide] | < 250 | < 250
Cc1ccc(NS(=O)(=O)c2cnn([C@@H](CO)C(F)F)c2)c2[nH]cc(C#N)c12 [Compound 227, N-(3-cyano-4-methyl-1H-indol-7-yl)-1-[(1S)-2,2-difluoro-1-(hydroxymethyl)ethyl]pyrazole-4-sulfonamide] | < 250 | 250 to 1000
C[C@H](CO)n1cc(S(=O)(=O)Nc2ccc(Cl)c3c(C#N)c[nH]c23)cn1 [Compound 208, (R)—N-(4-chloro-3-cyano-1H-indol-7-yl)-1-(1-hydroxypropan-2-yl)-1H-pyrazole-4-sulfonamide] | < 250 | 250 to 1000
Cc1ccc(NS(=O)(=O)c2cnn(CCS(C)(=O)=O)c2)c2[nH]cc(C#N)c12 [Compound 67, N-(3-cyano-4-methyl-1H-indol-7-yl)-1-(2-methylsulfonylethyl)pyrazole-4-sulfonamide] | < 250 | 250 to 1000
Cc1ccc(NS(=O)(=O)c2cnn(C(C)(C)C(N)=O)c2)c2[nH]cc(C#N)c12 [Compound 241, 2-[4-[(3-cyano-4-methyl-1H-indol-7-yl)sulfamoyl]pyrazol-1-yl]-2-methyl-propanamide] | < 250 | 250 to 1000
CCn1cc(S(=O)(=O)Nc2ccc(C)c3c(C#N)c[nH]c23)cn1 [Compound 68, N-(3-cyano-4-methyl-1H-indol-7-yl)-1-ethyl-pyrazole-4-sulfonamide] | < 250 | < 250
CC(C)(CO)n1cc(S(=O)(=O)Nc2ccc(F)c3c(C#N)c[nH]c23)cn1 [Compound 224, N-(3-cyano-4-fluoro-1H-indol-7-yl)-1-(2-hydroxy-1,1-dimethyl-ethyl)pyrazole-4-sulfonamide] | < 250 | 250 to 1000
Cc1ccc(NS(=O)(=O)c2cnn(C(C)(C)C)c2)c2[nH]cc(C#N)c12 [Compound 94, 1-tert-butyl-N-(3-cyano-4-methyl-1H-indol-7-yl)pyrazole-4-sulfonamide] | < 250 | < 250
N#Cc1c[nH]c2c(NS(=O)(=O)c3cnn(C(F)F)c3)ccc(Cl)c12 [Compound 119, N-(4-chloro-3-cyano-1H-indol-7-yl)-1-(difluoromethyl)pyrazole-4-sulfonamide] | < 250 | < 250
N#Cc1c[nH]c2c(NS(=O)(=O)c3cnn([C@@H](CO)C(F)F)c3)ccc(Cl)c12 [Compound 226, N-(4-chloro-3-cyano-1H-indol-7-yl)-1-[(1S)-2,2-difluoro-1-(hydroxymethyl)ethyl]pyrazole-4-sulfonamide] | < 250 | 250 to 1000
COC1CC(n2cc(S(=O)(=O)Nc3ccc(Cl)c4c(C#N)c[nH]c34)cn2)C1 (centres unmarked) [Compound 189, N-(4-chloro-3-cyano-1H-indol-7-yl)-1-(3-methoxycyclobutyl)pyrazole-4-sulfonamide] | < 250 | 250 to 1000
CC(C)(O)Cn1ncc(S(=O)(=O)Nc2ccc(Cl)c3c(C#N)c[nH]c23)c1F [Compound 188, N-(4-chloro-3-cyano-1H-indol-7-yl)-5-fluoro-1-(2-hydroxy-2-methyl-propyl)pyrazole-4-sulfonamide] | < 250 | 250 to 1000
Cc1ccc(NS(=O)(=O)c2cnn(C3(CO)CC3)c2)c2[nH]cc(C#N)c12 [Compound 268, N-(3-cyano-4-methyl-1H-indol-7-yl)-1-[1-(hydroxymethyl)cyclopropyl]pyrazole-4-sulfonamide] | < 250 | < 250
O=S(=O)(Nc1ccc(Cl)c2c(Cl)c[nH]c12)c1cn[nH]c1 [Compound 159, N-(3,4-dichloro-1H-indol-7-yl)-1H-pyrazole-4-sulfonamide] | < 250 | < 250
N#Cc1c[nH]c2c(NS(=O)(=O)c3cnn(C4CCNC4=O)c3)ccc(Cl)c12 (centres unmarked) [Compound 147, N-(4-chloro-3-cyano-1H-indol-7-yl)-1-(2-oxopyrrolidin-3-yl)pyrazole-4-sulfonamide] | < 250 | > 1000
O=S(=O)(Nc1cccc2c(Cl)c[nH]c12)c1cnn(C2CNC2)c1 [Compound 18, 1-(azetidin-3-yl)-N-(3-chloro-1H-indol-7-yl)pyrazole-4-sulfonamide] | 250 to 1000 | > 1000
N#Cc1c[nH]c2c(NS(=O)(=O)c3cnn(C45CC(C4)C5)c3)ccc(F)c12 [Compound 219, 1-(3-bicyclo[1.1.1]pentanyl)-N-(3-cyano-4-fluoro-1H-indol-7-yl)pyrazole-4-sulfonamide] | < 250 | 250 to 1000
Cc1ccc(NS(=O)(=O)c2cnn(CF)c2)c2[nH]nc(C#N)c12 [Compound 305, N-(3-cyano-4-methyl-1H-indazol-7-yl)-1-(fluoromethyl)pyrazole-4-sulfonamide] | < 250 | 250 to 1000
N#Cc1c[nH]c2c(NS(=O)(=O)c3c[nH]nc3N)ccc(F)c12 [Compound 300, 3-amino-N-(3-cyano-4-fluoro-1H-indol-7-yl)-1H-pyrazole-4-sulfonamide] | < 250 | > 1000
CC(C)(O)Cn1cc(S(=O)(=O)Nc2ccc(F)c3c(C#N)c[nH]c23)cn1 [Compound 192, N-(3-cyano-4-fluoro-1H-indol-7-yl)-1-(2-hydroxy-2-methyl-propyl)pyrazole-4-sulfonamide] | < 250 | > 1000
C=C(CF)n1cc(S(=O)(=O)Nc2ccc(C)c3c(C#N)c[nH]c23)cn1 [Compound 80, N-(3-cyano-4-methyl-1H-indol-7-yl)-1-[1-(fluoromethyl)vinyl]pyrazole-4-sulfonamide] | < 250 | < 250
Cc1ccc(NS(=O)(=O)c2cnn(C)c2C)c2[nH]cc(C#N)c12 [Compound 113, N-(3-cyano-4-methyl-1H-indol-7-yl)-1,5-dimethyl-pyrazole-4-sulfonamide] | < 250 | < 250
N#Cc1cc(C(F)(F)F)ccc1-n1cc(S(=O)(=O)Nc2cccc3c(Cl)c[nH]c23)cn1 [Compound 22, N-(3-chloro-1H-indol-7-yl)-1-[2-cyano-4-(trifluoromethyl)phenyl]pyrazole-4-sulfonamide] | > 1000 | > 1000
